Assay [1] deals with T1, 17β-HSD3 (Homo sapiens, UniProt P37058).
T1 construct: expressed in transfected cells; host or cells: HEK-293 (homogenate)
T1 sequence (P37058 1-310): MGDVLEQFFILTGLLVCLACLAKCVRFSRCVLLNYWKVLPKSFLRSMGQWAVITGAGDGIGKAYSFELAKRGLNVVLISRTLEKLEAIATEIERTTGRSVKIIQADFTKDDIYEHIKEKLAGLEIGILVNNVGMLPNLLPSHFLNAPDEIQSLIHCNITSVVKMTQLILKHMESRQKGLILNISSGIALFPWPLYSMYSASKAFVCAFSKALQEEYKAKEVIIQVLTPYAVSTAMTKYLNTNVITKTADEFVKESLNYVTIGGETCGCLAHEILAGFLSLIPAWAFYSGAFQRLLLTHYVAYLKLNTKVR
Nature of the assay: Inhibition of 17β-HSD3 in intact HEK-293 cells. The conditions noted are these: 0.1 μM; for inhibition at 0.1 µM: HEK293, 1 h. The format is cell-based.

The target in assay [2] is T1, 17β-HSD3. Description: Inhibition of 17β-HSD3 in homogenated HEK-293 cells. The format is biochemical. The conditions noted are these: for inhibition at 1 µM: read-out: Homo (%) (1.0 μM), Table 4.
[3] abbreviates: Table 3, read-out: Intact cells (%) (0.1 μM).
[4] abbreviates: Table 3, read-out: Homo (%) (0.01 μM).
Setting [5] is: Table 3, read-out: Homo (%) (0.1 μM).
Setting [6] is: read-out: Intact cells (%) (0.1 μM), Table 4.
The mark [7] stands for this setting: read-out: Homo (%) (0.01 μM), Table 4.
[8] abbreviates: read-out: Homo (%) (0.1 μM), Table 4.

Here are results for 14 molecules from patent US11072632B2, “Inhibitors of 17β-HSD1, 17β-HSD3 and 17β-HSD10” (UNIVERSITÉ LAVAL, priority 2011, dated 2021).

Read-outs that look alike come from different tables or passages of the source.

Turning to `C[C@]12CC[C@](O)(CN3CCN(C(=O)c4cccc(C(F)(F)F)c4)CC3)C[C@@H]1CC[C@@H]1[C@@H]2CC[C@]2(C)C(=O)CC[C@@H]12` [Compound 12d, (3α,5α)-3-hydroxy-3-[(4-{[3-(trifluoromethyl)phenyl]carbonyl}piperazin-1-yl)methyl]androstan-17-one], the inhibition at 0.1 µM was 91% on 17β-HSD3 [1] (setting [3]) and 92% on 17β-HSD3 [2] (setting [5]). Further, the inhibition at 0.01 µM at 17β-HSD3 [2] (setting [4]) stood at 10%.

As for `C[C@]12CC[C@](O)(CN3CCN(C(=O)c4ccc(C(F)(F)F)cc4)CC3)C[C@@H]1CC[C@@H]1[C@@H]2CC[C@]2(C)C(=O)CC[C@@H]12` [Compound 12e, (3α,5α)-3-hydroxy-3-[(4-{[4-(trifluoromethyl)phenyl]carbonyl}piperazin-1-yl)methyl]androstan-17-one], the values for the inhibition at 0.1 µM on 17β-HSD3 [1] (setting [3]) and on 17β-HSD3 [2] (setting [5]) were 56% and 84%, respectively. On 17β-HSD3 [2] (setting [4]), the inhibition at 0.01 µM turned out to be 22%.

Consider `CC1CN(C(=O)c2ccccc2)C(C)CN1C[C@@]1(O)CC[C@@]2(C)[C@@H](CC[C@@H]3[C@@H]2CC[C@]2(C)C(=O)CC[C@@H]32)C1` (stereo partly drawn) [Compound 13a, (3α,5α)-3-{[(2ξ,5ξ)-2,5-dimethyl-4-(phenylcarbonyl)piperazin-1-yl]methyl}-3-hydroxyandrostan-17-one], for which the “Intact cells (%) (0.1 μM)” value at 17β-HSD3 [1] (Table 3) was found to be 78%. On 17β-HSD3 [2] (Table 3), the “Homo (%) (0.01 μM)” value came to 24% and the “Homo (%) (0.1 μM)” value was 87%.

Consider `CC1CN(C(=O)C2CCCCC2)C(C)CN1C[C@@]1(O)CC[C@@]2(C)[C@@H](CC[C@@H]3[C@@H]2CC[C@]2(C)C(=O)CC[C@@H]32)C1` (stereo partly drawn) [Compound 13b, (3α,5α)-3-{[(2ξ,5ξ)-4-(cyclohexylcarbonyl)-2,5-dimethylpiperazin-1-yl]methyl}-3-hydroxyandrostan-17-one], for which the “Intact cells (%) (0.1 μM)” value at 17β-HSD3 [1] (Table 3) came to 77%. Moreover, on 17β-HSD3 [2] (Table 3), the “Homo (%) (0.01 μM)” value turned out to be 24% and the “Homo (%) (0.1 μM)” value was 90%.

Turning to `CC1CN(C(=O)c2cccc(C(F)(F)F)c2)C(C)CN1CC1(O)CCC2(C)C(CCC3C4CCC(=O)C4(C)CCC32)C1` (stereo not drawn) [Compound 13c, (3α,5α)-3-{[(2ξ,5ξ)-2,5-dimethyl-4-{[3-(trifluoromethyl)phenyl]carbonyl}piperazin-1-yl]methyl}-3-hydroxyandrostan-17-one], the “Intact cells (%) (0.1 μM)” value on 17β-HSD3 [1] (Table 3) is reported as 70%. Moreover, on 17β-HSD3 [2] (Table 3), the “Homo (%) (0.01 μM)” value is recorded as 28% and the “Homo (%) (0.1 μM)” value is 89%.

As for `Cc1ccc(CN2C[C@]3(CC[C@@]4(C)[C@@H](CC[C@@H]5[C@@H]4CC[C@]4(C)C(=O)CC[C@@H]54)C3)OC2=O)cc1` [Compound 17b, (3R,5S,8R,9S,10S,13S,14S)-10,13-dimethyl-3′-(4-methylbenzyl)tetrahydrodecahydro-2′H-spiro[cyclopenta[α]phenanthrene-3,5′-[1,3]oxazolidine]-2′,17(2H)-dione], the values for the inhibition at 0.1 µM on 17β-HSD3 [1] (setting [6]) and on 17β-HSD3 [2] (setting [8]) were 38% and 81%, respectively. In addition, the inhibition at 0.01 µM on 17β-HSD3 [2] (setting [7]) is 17%. The inhibition at 1 µM at 17β-HSD3 [2] turned out to be 93%.

In the case of `COc1ccc(CN2C[C@]3(CC[C@@]4(C)[C@@H](CC[C@@H]5[C@@H]4CC[C@]4(C)C(=O)CC[C@@H]54)C3)OC2=O)cc1` [Compound 17c, (3R,5S,8R,9S,10S,13S,14S)-3′-(4-methoxybenzyl)-10,13-dimethyltetradecahydro-2′H-spiro[cyclopenta[α]phenanthrene-3,5′-[1,3]oxazolidine]-2′,17(2H)-dione], the values for the inhibition at 0.1 µM at 17β-HSD3 [1] (setting [6]) and at 17β-HSD3 [2] (setting [8]) were 43% and 84%, respectively. Also, the inhibition at 0.01 µM on 17β-HSD3 [2] (setting [7]) was 5%. In addition, the inhibition at 1 µM on 17β-HSD3 [2] was determined as 93%.

For the molecule `C[C@]12CC[C@@]3(C[C@@H]1CC[C@@H]1[C@@H]2CC[C@]2(C)C(=O)CC[C@@H]12)CN(Cc1ccc(C(F)(F)F)cc1)C(=O)O3` [Compound 17d, (3R,5S,8R,9S,10S,13S,14S)-10,13-dimethyl-3′-[4-(trifluoromethyl)benzyl]tetradecahydro-2′H-spiro[cyclopenta[α]phenanthrene-3,5′-[1,3]oxazolidine]-2′,17(2H)-dione], the inhibition at 0.1 µM on 17β-HSD3 [1] (setting [6]) worked out at 43%; on 17β-HSD3 [2] (setting [8]), 80%. The inhibition at 0.01 µM on 17β-HSD3 [2] (setting [7]) turned out to be 25%.

As to `C[C@]12CC[C@@]3(C[C@@H]1CC[C@@H]1[C@@H]2CC[C@]2(C)C(=O)CC[C@@H]12)CN(Cc1ccc(C(F)(F)F)nc1)C(=O)O3` [Compound 17e], the inhibition at 0.1 µM at 17β-HSD3 [1] (setting [6]) worked out at 36%; at 17β-HSD3 [2] (setting [8]), 65%. Moreover, the inhibition at 0.01 µM at 17β-HSD3 [2] (setting [7]) amounted to 3%.

`C[C@]12CC[C@@]3(C[C@@H]1CC[C@@H]1[C@@H]2CC[C@]2(C)C(=O)CC[C@@H]12)CN(Cc1ccccc1C(F)(F)F)C(=O)O3` [Compound 17f, (3R,5S,8R,9S,10S,13S,14S)-10,13-dimethyl-3′-[2-(trifluoromethyl)benzyl]tetradecahydro-2′H-spiro[cyclopenta[α]phenanthrene-3,5′-[1,3]oxazolidine]-2′,17(2H)-dione]: the inhibition at 0.1 µM on 17β-HSD3 [1] (setting [6]) came to 35%; at 17β-HSD3 [2] (setting [8]) it was 81%. Further, the inhibition at 0.01 µM on 17β-HSD3 [2] (setting [7]) turned out to be 17%.

Turning to `C[C@]12CC[C@@]3(C[C@@H]1CC[C@@H]1[C@@H]2CC[C@]2(C)C(=O)CC[C@@H]12)CN(Cc1cccc(C(F)(F)F)c1)C(=O)O3` [Compound 17g, (3R,5S,8R,9S,10S,13S,14S)-10,13-dimethyl-3′-[3-(trifluoromethyl)benzyl]tetradecahydro-2′H-spiro[cyclopenta[α]phenanthrene-3,5′-[1,3]oxazolidine]-2′,17(2H)-dione], the inhibition at 0.1 µM at 17β-HSD3 [1] (setting [6]) came out at 36%; on 17β-HSD3 [2] (setting [8]) it was 80%. Further, the inhibition at 0.01 µM on 17β-HSD3 [2] (setting [7]) is 16%.

Turning to `C[C@]12CC[C@@]3(C[C@@H]1CC[C@@H]1[C@@H]2CC[C@]2(C)C(=O)CC[C@@H]12)CN(Cc1cc(C(F)(F)F)cc(C(F)(F)F)c1)C(=O)O3` [Compound 17h, (3R,5S,8R,9S,10S,13S,14)-3′-[3,5-bis(trifluoromethyl)benzyl]-10,13-dimethyletradecahydro-2′H-spiro[cyclopenta[α]phenanthrene-3,5′-[1,3]oxazolidine]-2′,17(2H)-dione], the figures for the inhibition at 0.1 µM at 17β-HSD3 [1] (setting [6]) and at 17β-HSD3 [2] (setting [8]) were 35% and 66%, respectively. Further, the inhibition at 0.01 µM on 17β-HSD3 [2] (setting [7]) came out at 12%.

For the molecule `C[C@]12CC[C@@]3(C[C@@H]1CC[C@@H]1[C@@H]2CC[C@]2(C)C(=O)CC[C@@H]12)CN(C1CCCCC1)C(=O)O3` [Compound 17i, (3R,5S,8R,9S,10S,13S,14S)-3′-cyclohexyl-10,13-dimethyltetradecahydro-2′H-spiro[cyclopenta[α]phenanthrene-3,5′-[1,3]oxazolidine]-2′,17(2H)-dione], the inhibition at 0.1 µM on 17β-HSD3 [1] (setting [6]) is 29%; at 17β-HSD3 [2] (setting [8]) it was 75%. The inhibition at 0.01 µM on 17β-HSD3 [2] (setting [7]) turned out to be 13%. Also, the inhibition at 1 µM at 17β-HSD3 [2] is 78%.

For the molecule `Cc1ccc(CN2C[C@]3(CC[C@@]4(C)[C@@H](CC[C@@H]5[C@@H]4CC[C@]4(C)C(=O)C(C)(C)C[C@@H]54)C3)OC2=O)cc1` [Compound 18, (3R,5S,8R,9S,10S,13S,14S)-10,13,16,16-tetramethyl-3′-(4-methylbenzyl)tetrahydrodecahydro-2′H-spiro[cyclopenta[α]phenanthrene-3,5′-[1,3]oxazolidine]-2′,17(2H)-dione], the values for the inhibition at 0.1 µM at 17β-HSD3 [1] (setting [6]) and at 17β-HSD3 [2] (setting [8]) were 18% and 22%, respectively. Further, at 17β-HSD3 [2] (setting [7]), the inhibition at 0.01 µM is 2%. Further, the inhibition at 1 µM on 17β-HSD3 [2] came to 74%.
